Assay results taken from ChEMBL document CHEMBL2046282, “Structure-based optimization of aminopyridines as PKCθ inhibitors” (Bioorg Med Chem Lett, 2012).

Columns and labels:
[1] = biological target: Protein kinase C alpha type (Homo sapiens, UniProt P17252); assay: Inhibition of PKCalpha
[2] = Clearance in mouse at 3 mg/kg, iv and 10 mg/kg, po; type: ADME, organism-based; conditions: in vivo
[3] = biological target: Tyrosine-protein kinase ZAP-70 (Homo sapiens, UniProt P43403); assay: Inhibition of ZAP70
[4] = Oral bioavailability in mouse at 10 mg/kg; type: ADME, organism-based; conditions: in vivo
[5] = biological target: Tyrosine-protein kinase Lyn (Homo sapiens, UniProt P07948); assay: Inhibition of LYN
[6] = biological target: T1, Protein kinase C theta type (Homo sapiens, UniProt Q04759); assay: Inhibition of PKCtheta-mediated IL-2 production by cell based assay
[7] = biological target: Protein kinase C epsilon type (Homo sapiens, UniProt Q02156); assay: Inhibition of PKCepsilon
[8] = biological target: Mitogen-activated protein kinase 10 (Homo sapiens, UniProt P53779); assay: Inhibition of JNK3
[9] = biological target: T1, Protein kinase C theta type; assay: Inhibition of PKCtheta
[10] = Apparent volume of distribution in mouse at 3 mg/kg, iv and 10 mg/kg, po; type: ADME, organism-based; conditions: in vivo, read-out: Vz
[11] = biological target: Phosphatidylinositol 4,5-bisphosphate 3-kinase catalytic subunit alpha isoform (Homo sapiens, UniProt P42336); assay: Inhibition of PI3Kalpha
[12] = biological target: Cyclin-dependent kinase 2 (Homo sapiens, UniProt P24941); assay: Inhibition of CDK2
[13] = biological target: Receptor-type tyrosine-protein kinase FLT3 (Homo sapiens, UniProt P36888); assay: Inhibition of Flt3
[14] = system: Plasma; assay: fCmax in Staphlyococcal enterotoxin B challenged Balb/c mouse plasma at 100 mg/kg, po after 2 hrs; type: ADME, organism-based; design: dose 100 mg/kg, route oral; conditions: in vivo
[15] = biological target: Vascular endothelial growth factor receptor 2 (Homo sapiens, UniProt P35968); assay: Inhibition of KDR
[16] = biological target: Protein kinase C delta type (Homo sapiens, UniProt Q05655); assay: Inhibition of PKCdelta
[17] = Mean residence time in mouse at 3 mg/kg, iv and 10 mg/kg, po; type: ADME, organism-based; conditions: in vivo
[18] = biological target: Tyrosine-protein kinase ITK/TSK (Homo sapiens, UniProt Q08881); assay: Inhibition of ITK
[19] = biological target: Tyrosine-protein kinase Fyn (Homo sapiens, UniProt P06241); assay: Inhibition of FYN
[20] = biological target: Protein kinase C beta type (Homo sapiens, UniProt P05771); assay: Inhibition of PKCbeta
[21] = biological target: Mitogen-activated protein kinase 3 (Homo sapiens, UniProt P27361); assay: Inhibition of ERK1
[22] = biological target: Phosphatidylinositol 4,5-bisphosphate 3-kinase catalytic subunit gamma isoform (Homo sapiens, UniProt P48736); assay: Inhibition of PI3Kgamma
[23] = biological target: RAF proto-oncogene serine/threonine-protein kinase (Homo sapiens, UniProt P04049); assay: Inhibition of c-Raf
[24] = Volume of distribution at steady state in mouse at 3 mg/kg, iv and 10 mg/kg, po; type: ADME, organism-based; conditions: in vivo, read-out: Vdss
[25] = biological target: Rho-associated protein kinase 1 (Homo sapiens, UniProt Q13464); assay: Inhibition of ROCK1
[26] = biological target: Tyrosine-protein kinase Lck (Homo sapiens, UniProt P06239); assay: Inhibition of LCK
[27] = Half life in mouse at 3 mg/kg, iv and 10 mg/kg, po; type: ADME, organism-based; conditions: in vivo
[28] = biological target: Serine/threonine-protein kinase PLK1 (Homo sapiens, UniProt P53350); assay: Inhibition of Plk
[29] = biological target: Tyrosine-protein kinase JAK2 (Homo sapiens, UniProt O60674); assay: Inhibition of JAK2
[30] = Selectivity ratio of Ki for PKA to Ki for PKCtheta
[31] = Selectivity ratio of Ki for Src to Ki for PKCtheta
[32] = Selectivity ratio of Ki for GSK3beta to Ki for PKCtheta
[33] = Permeability from basolateral to apical side of human Caco2 cells; type: ADME, cell-based; conditions: Caco-2, read-out: permeability
[34] = Permeability from apical to basolateral side of human Caco2 cells; type: ADME, cell-based; conditions: Caco-2, read-out: permeability

T1 sequence (Q04759 whole entry): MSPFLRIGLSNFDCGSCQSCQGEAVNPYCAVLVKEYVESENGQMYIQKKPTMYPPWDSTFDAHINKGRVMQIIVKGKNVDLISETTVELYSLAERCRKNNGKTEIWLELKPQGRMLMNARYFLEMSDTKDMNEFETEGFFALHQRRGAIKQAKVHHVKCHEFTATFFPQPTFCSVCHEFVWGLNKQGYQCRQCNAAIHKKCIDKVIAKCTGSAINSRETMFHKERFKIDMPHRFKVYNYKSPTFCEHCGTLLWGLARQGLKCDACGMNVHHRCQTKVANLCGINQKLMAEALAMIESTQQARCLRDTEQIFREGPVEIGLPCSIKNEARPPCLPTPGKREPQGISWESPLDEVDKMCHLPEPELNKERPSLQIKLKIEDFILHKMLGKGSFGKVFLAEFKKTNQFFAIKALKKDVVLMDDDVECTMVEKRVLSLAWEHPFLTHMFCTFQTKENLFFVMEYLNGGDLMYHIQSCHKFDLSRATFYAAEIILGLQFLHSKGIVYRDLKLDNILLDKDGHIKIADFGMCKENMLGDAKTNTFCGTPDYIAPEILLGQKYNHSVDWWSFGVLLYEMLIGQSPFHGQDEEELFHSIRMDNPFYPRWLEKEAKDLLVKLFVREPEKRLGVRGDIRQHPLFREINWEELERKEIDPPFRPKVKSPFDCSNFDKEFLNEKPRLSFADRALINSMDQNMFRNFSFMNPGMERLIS
Sequence of Protein kinase C delta type (Q05655 whole entry): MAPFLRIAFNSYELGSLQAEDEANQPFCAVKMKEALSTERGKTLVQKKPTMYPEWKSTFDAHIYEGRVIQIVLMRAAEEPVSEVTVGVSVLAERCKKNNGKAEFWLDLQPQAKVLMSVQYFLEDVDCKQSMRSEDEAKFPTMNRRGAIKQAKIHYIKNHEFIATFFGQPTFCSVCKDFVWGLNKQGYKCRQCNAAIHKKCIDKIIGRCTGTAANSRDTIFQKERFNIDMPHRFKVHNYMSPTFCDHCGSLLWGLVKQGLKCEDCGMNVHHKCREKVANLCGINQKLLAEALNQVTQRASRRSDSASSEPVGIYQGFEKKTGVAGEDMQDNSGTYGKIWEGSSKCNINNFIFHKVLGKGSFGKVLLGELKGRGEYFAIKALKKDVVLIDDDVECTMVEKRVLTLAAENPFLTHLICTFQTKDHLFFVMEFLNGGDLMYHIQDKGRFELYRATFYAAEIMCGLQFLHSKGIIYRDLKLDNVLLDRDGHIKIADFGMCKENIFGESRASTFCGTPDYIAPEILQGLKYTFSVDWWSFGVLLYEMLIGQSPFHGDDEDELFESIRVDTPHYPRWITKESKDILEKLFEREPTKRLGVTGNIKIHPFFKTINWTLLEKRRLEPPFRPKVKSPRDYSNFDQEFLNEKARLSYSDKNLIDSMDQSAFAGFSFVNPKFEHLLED
Sequence of Tyrosine-protein kinase ZAP-70 (P43403 whole entry): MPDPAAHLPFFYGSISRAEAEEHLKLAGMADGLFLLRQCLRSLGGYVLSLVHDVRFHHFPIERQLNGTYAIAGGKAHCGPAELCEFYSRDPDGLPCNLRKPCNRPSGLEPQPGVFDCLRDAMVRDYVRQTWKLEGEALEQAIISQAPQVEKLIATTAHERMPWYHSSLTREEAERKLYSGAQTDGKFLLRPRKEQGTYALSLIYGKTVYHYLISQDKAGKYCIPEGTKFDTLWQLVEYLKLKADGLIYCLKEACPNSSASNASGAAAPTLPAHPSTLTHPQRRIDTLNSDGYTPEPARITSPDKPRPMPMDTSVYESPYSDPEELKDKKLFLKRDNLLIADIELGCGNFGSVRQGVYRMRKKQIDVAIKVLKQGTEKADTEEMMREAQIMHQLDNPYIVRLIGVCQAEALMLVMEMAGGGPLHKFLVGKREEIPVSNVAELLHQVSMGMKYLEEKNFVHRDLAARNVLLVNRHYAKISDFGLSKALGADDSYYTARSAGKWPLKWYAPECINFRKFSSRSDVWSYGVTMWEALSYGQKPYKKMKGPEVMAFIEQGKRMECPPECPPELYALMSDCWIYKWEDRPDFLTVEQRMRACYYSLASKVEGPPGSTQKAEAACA
Sequence of Tyrosine-protein kinase Lck (P06239 whole entry): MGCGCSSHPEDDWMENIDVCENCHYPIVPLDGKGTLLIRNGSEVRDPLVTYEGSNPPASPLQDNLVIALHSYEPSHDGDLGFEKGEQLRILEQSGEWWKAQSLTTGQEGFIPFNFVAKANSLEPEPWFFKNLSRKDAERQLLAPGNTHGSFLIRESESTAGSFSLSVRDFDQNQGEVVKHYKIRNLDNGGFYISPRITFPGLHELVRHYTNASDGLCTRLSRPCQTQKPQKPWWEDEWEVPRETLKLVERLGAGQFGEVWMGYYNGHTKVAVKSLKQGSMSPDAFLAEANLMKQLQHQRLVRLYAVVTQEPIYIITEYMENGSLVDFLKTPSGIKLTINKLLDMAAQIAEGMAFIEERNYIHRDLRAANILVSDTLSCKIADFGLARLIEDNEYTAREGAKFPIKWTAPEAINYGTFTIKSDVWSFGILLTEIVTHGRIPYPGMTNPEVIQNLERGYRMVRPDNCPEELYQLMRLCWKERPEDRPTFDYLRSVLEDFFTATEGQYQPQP
Sequence of Tyrosine-protein kinase Fyn (P06241 whole entry): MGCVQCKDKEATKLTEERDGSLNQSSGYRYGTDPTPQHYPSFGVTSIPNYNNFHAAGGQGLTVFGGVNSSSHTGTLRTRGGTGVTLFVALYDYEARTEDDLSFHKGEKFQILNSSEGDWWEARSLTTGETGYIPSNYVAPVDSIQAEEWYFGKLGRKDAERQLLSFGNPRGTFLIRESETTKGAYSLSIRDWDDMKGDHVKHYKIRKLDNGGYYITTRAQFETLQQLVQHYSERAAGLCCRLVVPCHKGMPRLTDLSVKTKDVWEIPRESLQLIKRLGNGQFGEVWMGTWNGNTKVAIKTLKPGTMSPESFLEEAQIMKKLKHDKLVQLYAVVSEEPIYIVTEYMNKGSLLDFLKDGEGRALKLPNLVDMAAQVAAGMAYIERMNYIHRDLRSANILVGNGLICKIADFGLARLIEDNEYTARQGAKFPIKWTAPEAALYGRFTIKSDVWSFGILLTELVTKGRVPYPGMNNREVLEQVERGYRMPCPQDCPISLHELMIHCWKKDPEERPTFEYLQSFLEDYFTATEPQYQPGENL
Sequence of Protein kinase C beta type (P05771 whole entry): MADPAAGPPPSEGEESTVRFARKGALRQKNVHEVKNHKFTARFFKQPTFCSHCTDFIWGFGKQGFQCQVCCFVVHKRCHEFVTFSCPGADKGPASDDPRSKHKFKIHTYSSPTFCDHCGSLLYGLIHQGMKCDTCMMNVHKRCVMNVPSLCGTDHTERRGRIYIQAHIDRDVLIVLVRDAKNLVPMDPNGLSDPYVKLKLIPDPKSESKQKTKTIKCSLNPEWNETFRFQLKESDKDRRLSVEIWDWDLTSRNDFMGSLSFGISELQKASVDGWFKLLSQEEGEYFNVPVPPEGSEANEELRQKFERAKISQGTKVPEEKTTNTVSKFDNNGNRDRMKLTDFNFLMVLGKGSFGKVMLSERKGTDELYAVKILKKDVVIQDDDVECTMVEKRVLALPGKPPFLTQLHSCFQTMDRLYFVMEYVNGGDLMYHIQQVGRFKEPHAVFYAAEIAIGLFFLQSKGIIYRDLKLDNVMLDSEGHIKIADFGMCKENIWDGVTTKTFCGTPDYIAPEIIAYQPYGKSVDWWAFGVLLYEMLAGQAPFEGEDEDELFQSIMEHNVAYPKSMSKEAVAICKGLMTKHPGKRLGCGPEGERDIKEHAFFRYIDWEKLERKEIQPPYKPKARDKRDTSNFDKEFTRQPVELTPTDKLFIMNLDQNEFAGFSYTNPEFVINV
Sequence of Mitogen-activated protein kinase 3 (P27361 whole entry, canonical isoform): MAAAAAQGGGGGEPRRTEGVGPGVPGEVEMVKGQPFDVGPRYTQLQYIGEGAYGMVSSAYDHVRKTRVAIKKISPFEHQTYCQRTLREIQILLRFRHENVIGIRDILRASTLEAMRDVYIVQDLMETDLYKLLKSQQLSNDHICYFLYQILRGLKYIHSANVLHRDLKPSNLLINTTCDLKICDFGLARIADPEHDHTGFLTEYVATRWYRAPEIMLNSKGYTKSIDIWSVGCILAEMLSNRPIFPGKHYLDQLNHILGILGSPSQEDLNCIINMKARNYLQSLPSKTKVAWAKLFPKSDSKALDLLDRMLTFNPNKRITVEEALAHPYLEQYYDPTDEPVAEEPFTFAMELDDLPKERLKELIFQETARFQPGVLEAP

## CC(C)C[C@H]1CN(c2ccc(Cc3ccccc3)c(C(=O)c3cccnc3N)n2)CCN1
[1]
  Ki: > 1250 nM

## CCCc1ccc(N2CCN[C@@H](CC(C)C)C2)nc1C(=O)c1cccnc1N
[1]
  Ki: 1230 nM

## CC(C)C[C@H]1CN(c2ccc(C(F)(F)F)c(C(=O)c3cccnc3N)n2)CCN1
[2]
  clearance: 203 mL/min/kg
[3]
  IC50: > 2000 nM
[4]
  bioavailability: 45%
[5]
  IC50: > 2000 nM
[6]
  IC50: 52 nM
[7]
  Ki: 17 nM
[8]
  Ki: > 4 µM
[9]
  Ki: 3 nM
[10]
  Vd: 19.7 L/kg
[11]
  Ki: > 4 µM
[12]
  Ki: > 4 µM
[13]
  Ki: 580 nM
[14]
  fCmax: 150 nM
[1]
  Ki: 76 nM
[15]
  Ki: > 4 µM
[16]
  Ki: 37 nM
[17]
  MRT: 1.4 h
[18]
  IC50: > 2000 nM
[19]
  IC50: > 2000 nM
[20]
  Ki: 260 nM
[21]
  IC50: > 2000 nM
[22]
  Ki: > 4 µM
[23]
  IC50: > 2000 nM
[24]
  Vd: 15.8 L/kg
[25]
  Ki: > 4 µM
[26]
  IC50: > 2000 nM
[27]
  half-life: 78 min
[28]
  Ki: > 4 µM
[29]
  Ki: > 4 µM

## CC(C)C[C@H]1CN(c2ccc(C3CC3)c(C(=O)c3cccnc3N)n2)CCN1
[1]
  Ki: 2650 nM

## CC(C)C[C@H]1CN(c2ccc(Cl)c(C(=O)c3cccnc3N)n2)CCN1
[30]
  Ratio Ki: 38
[6]
  IC50: 58 nM
[9]
  Ki: 2 nM
[31]
  Ratio Ki: > 4000
[1]
  Ki: 49 nM
[16]
  Ki: 22 nM
[32]
  Ratio Ki: 255

## CC(C)C[C@H]1CN(c2ccc(OC(F)F)c(C(=O)c3cccnc3N)n2)CCN1
[30]
  Ratio Ki: 84
[6]
  IC50: 229 nM
[9]
  Ki: 7 nM
[31]
  Ratio Ki: > 570
[1]
  Ki: 459 nM
[16]
  Ki: 87 nM
[32]
  Ratio Ki: > 570

## CC(C)C[C@H]1CN(c2cccc(C(=O)c3cccnc3N)n2)CCN1
[30]
  Ratio Ki: 60
[6]
  IC50: 165 nM
[9]
  Ki: 3 nM
[31]
  Ratio Ki: > 1400
[1]
  Ki: 54 nM
[16]
  Ki: 20 nM
[32]
  Ratio Ki: 143

## Nc1ncccc1C(=O)c1cccc(N2CCCNCC2)n1
[33]
  Papp B→A: 11 ×10⁻⁶ cm/s
[34]
  Papp A→B: 9 ×10⁻⁶ cm/s

## Cc1cc(C(=O)c2cccnc2N)nc(N2CCN[C@@H](CC(C)C)C2)c1
[1]
  Ki: 459 nM

## Nc1ncccc1C(=O)c1cccc(N2CCC(N)C2)n1 (configuration not stated)
[9]
  Ki: 1520 nM
